Consider 33 compounds from US20060120980A1, “Novel dermatological composition using bio-activating organocatalysts” (priority 2004, published 2006).

Data set [1] is described as follows: appearance of the final solution (Cosmetics, formulary consideration). In kind it is physicochemical. As to conditions: appearance of final solution after reaction with Cu. An excerpt: In certain aspects of the present invention, the catalyst system using transition metals (Cu or Fe) as trace catalytic metals, may require the presence of an optional redox agent (antioxidant) so as to produce H2O2. In order to form hydrogen peroxide, for example, it is necessary for the redox agent to reduce Cu^++ to Cu^+. […] In expanding the number of antioxidants, the following table was assembled after experimentation, based upon reactivity with Cu, the ability to reduce CoQ10 to H2CoQ10 and the appearance of the final solution (formulary consideration).

For data set [2], the system named is papilla-corium layer of skin. Kind of data set: bioreactive skin test (pin-head like projections, activation of the papilla-corium layer). In kind it is in vivo. More on the design: key: * = slight bioreactivity; *** = gross bioreactivity.
Description: In this assay, compounds are applied to the dermis of an animal and potentially bio-reactive compounds (i.e., those which might function as bio-activating organocatalysts) produce a multiplicity of very small, pin-head like projections on the epidermis produced by activation of the papilla-corium layer. […] The bioreactivity of the formula can be judged by the intensity and time of the reaction.
The formula according to the present invention which are bioreactive in a skin test show a multiplicity of very small, pin-head like projections on the epidermis produced by activation of the papilla-corium layer. […] The activation ensues for about 2-4 hours and is from slight to gross depending on the formulation and returns to the normal skin landscape. The bioreactivity of the formula can be judged by the intensity and time of the reaction.
Essentially, the skin cream formulations containing organocatalyst are tested on skin. Those compositions which are bioreactive in the skin test show a multiplicity of very small, pin-head like projections on the epidermis produced by activation of the papilla-corium layer. The activation continues for about 2-4 hours and is from slight to gross depending on the formulation and returns to the normal skin landscape. The bioreactivity of the formula can be judged by the intensity and time of the reaction.
Data set [3] is described as follows: solubility of organocatalyst in Eucerin skin cream (table comment). The class given is physicochemical. The following applies: 20 % by weight in Eucerin skin cream. The method, then: In order to test the relative bioreactivity of organocatalysts according to the present invention, a number of potential organocatalysts were formulated into a skin cream using Eucerin™ at concentrations ranging from 2% to 25% by weight of the final skin cream formulation. These skin creams were formulated by dissolving the organocatalyst at a desired amount into the Eucerin. The formulated compositions were then tested for skin bioreactivity according to the method previously described hereinabove.

For data set [4] the following is noted: metal chelate; cited from earlier work.
The mark [5] stands for this setting: Table 1A, 2 % by weight in Eucerin skin cream.
Where [6] appears, read: Table 1A, 25 % by weight in Eucerin skin cream.
Where [7] appears, read: Table 1A, 20 % by weight in Eucerin skin cream.

As for `O=C(O)CCCC[C@@H]1CCSS1` (racemic) [Lipoic Acid], in data set [1], the Cosmetics entry was “clear solution”.
In the case of `O=C(O)[C@@H]1CC(O)CN1` (stereo partly shown) [1-4-hydroxyproline], the Bioreactivity result in data set [2] (Table 1, 2 % by weight) was “*”; in data set [2] (Table 1, 25 % by weight), “***”; in data set [2] (setting [5]) it was “*”; in data set [2] (setting [6]) it was “***”.
`N[C@@H](Cc1ccccc1)C(=O)O` [1-phenylalanine]: the “Comment (solubility)” value in data set [3] was “low solubility”. In addition, the Bioreactivity result in data set [2] (Table 1, 20 % by weight) is reported as “*”; in data set [2] (setting [7]), “*”.
As to `CC(C)(C)OC(=O)[C@@H]1CCCN1` [1-proline-t-butyl ester], the Bioreactivity entry in data set [2] (Table 1, 20 % by weight) is given as “***”; in data set [2] (setting [7]), “***”.
Regarding `O=C(O)[C@@H]1CCCN1` [1-proline], in data set [2] (in vivo), the Bioreactivity entry was “*** and *”.
`O=C1NCC(C(=O)O)N1` (stereo not shown) [2-imidazolidone-4-carboxylic acid]: the Bioreactivity result in data set [2] (Table 1, 2 % by weight) is given as “*”; in data set [2] (Table 1, 20 % by weight), “***”; in data set [2] (setting [5]), “*”; in data set [2] (setting [7]) it was “***”.
For `O=C(O)/C=C/c1ccc(O)c(O)c1` [Caffeic acid], the Cosmetics entry in data set [1] is recorded as “dark brown ppt”.
For the compound `O=C([O-])CN(CCN(CC(=O)[O-])CC(=O)O)CC(=O)O.[Cu+2]` [Copper EDTA], the “Affinity Constant” value in data set [4] was 10^23.
Turning to `N[C@@H](Cc1c[nH]cn1)C(=O)O.[Cu]` [Copper histidine], the “Affinity Constant” value in data set [4] is given as 10^16.
For `N[C@@H](CS)C(=O)O` [Cysteine], the Cosmetics result in data set [1] is on record as “clear solution”.
Regarding `CC(=O)N(O)CCCCCNC(=O)CCC(=O)N(O)CCCCCNC(=O)CCC(=O)N(O)CCCCCN` [Desferrioxamine], in data set [4], the “Affinity Constant” value is given as 10^30.
In the case of `O=C([O-])CN(CCN(CC(=O)[O-])CC(=O)O)CC(=O)[O-].[Fe+3]` [Ferric EDTA], the “Affinity Constant” value in data set [4] was 10^25.
Regarding `Oc1ccccc1O.[Fe+3]` [Ferric catechol], the “Affinity Constant” value in data set [4] is 10^20.
`O=C(O)c1ccccc1O.[Fe+3]` [Ferric salicylic acid]: in data set [4], the “Affinity Constant” value is reported as 10^16.
For the compound `O=C([O-])CN(CCN(CC(=O)[O-])CC(=O)[O-])CC(=O)[O-].[Fe+2].[H+].[H+]` [Ferrous EDTA], the “Affinity Constant” value in data set [4] is on record as 10^25.
Turning to `N[C@@H](Cc1c[nH]cn1)C(=O)O.[Fe+2]` [Ferrous histidine], the “Affinity Constant” value in data set [4] is 10^16.
As for `CC(O)C(=O)[O-].CC(O)C(=O)[O-].[Fe+2]` (stereo not shown) [Ferrous lactate], in data set [4], the “Affinity Constant” value is on record as 10^12.
Regarding `O=C(O)c1cc(O)c(O)c(O)c1` [Gallic acid], the Cosmetics result in data set [1] is on record as “ugly brown ppt”.
Regarding `N[C@@H](CCC(=O)N[C@@H](CS)C(=O)NCC(=O)O)C(=O)O` [Glutathione], the Cosmetics entry in data set [1] is on record as “clear solution”.
On to `O=C(O)CO` [Glycolic acid], for which the “Affinity Constant” value in data set [4] is given as 10^5.
For the compound `CC(=O)N[C@@H](CS)C(=O)O` [N-acetyl cysteine], in data set [1], the Cosmetics result is reported as “clear solution”.
As to `CC(=O)N1CCC[C@H]1C(=O)O` [N-acetyl-1-proline], in data set [3], the “Comment (solubility)” value was “low solubility”. Also, the Bioreactivity result in data set [2] (Table 1, 20 % by weight) is on record as “*”; in data set [2] (setting [7]), “*”.
For the compound `CCCOC(=O)c1cc(O)c(O)c(O)c1` [Propyl gallate], in data set [1], the Cosmetics entry is recorded as “ugly brown ppt”.
As to `O=c1[nH]c(=O)c2[nH]c(=O)[nH]c2[nH]1` [Uric acid], the Cosmetics entry in data set [1] is “slightly colored ppt”.
Turning to `O=C(O)C1CCCN1` (stereo not shown) [d,1-proline], the Bioreactivity entry in data set [2] (in vivo) is given as “***”.
Turning to `O=C([O-])C(O)C(O)C(=O)[O-].[Na+].[Na+]` (stereo not shown) [disodium tartrate, reference compound], in data set [2] (setting [7]), the Bioreactivity result is on record as “no reactivity”.
As for `CC(O)CO` (stereo not shown) [propylene glycol, reference compound], in data set [2] (setting [6]), the Bioreactivity result is given as “no reactivity”.
Take `C=C[C@H]1C[N@@]2CC[C@H]1C[C@@H]2[C@@H](O)c1ccnc2ccc(OC)cc12` [quinidine, reference compound]: the Bioreactivity result is reported as “*” in data set [2] (Table 1, 2 % by weight) and “*” in data set [2] (setting [5]).
`C=C[C@H]1CN2CC[C@H]1C[C@H]2[C@H](O)c1ccnc2ccc(OC)cc12.O=S(=O)(O)O` [quinine hydrosulfate, reference compound]: the Bioreactivity result is “*” in data set [2] (Table 1, 2 % by weight) and “*” in data set [2] (setting [5]).
On to Copper gluconate, for which, in data set [4], the “Affinity Constant” value is 10^6.
Take Copper lacate: in data set [4], the “Affinity Constant” value is 10^10-10^12.
Regarding Copper tripeptide (GHG), in data set [4], the “Affinity Constant” value was 10^16.
For the compound Vitamin E, in data set [1], the Cosmetics result is reported as “ugly brown ppt”.
